Tests used:
Experiment in all cases: relative viability (nuclei count vs DMSO), 5 days (fraction); higher = more cells survive
AZD8055 + Lapatinib = compound: COc1ccc(-c2ccc3c(N4CCOC[C@@H]4C)nc(N4CCOC[C@@H]4C)nc3n2)cc1CO [AZD8055] + CS(=O)(=O)CCNCc1ccc(-c2ccc3ncnc(Nc4ccc(OCc5cccc(F)c5)c(Cl)c4)c3c2)o1 [Lapatinib] (partner 2 µM)
Outline: (§1)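 After 5 days of treatment, lung cancer cells in 1536-well plates were fixed and stained in a single step (final 0.05% Triton X-100, 1% formaldehyde, 1 ug/ml Hoechst) and their nuclei counted on 4× images. Treatment had been applied by pin tool the day after seeding as one drug alone or as a fixed anchor-drug dose with five library-drug doses (not always all listed) in √10 steps. Relative viability is the nuclei count of treated wells divided by that of vehicle wells, and values are medians of duplicate plates.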

AZD8055 + Crizotinib = compound: COc1ccc(-c2ccc3c(N4CCOC[C@@H]4C)nc(N4CCOC[C@@H]4C)nc3n2)cc1CO [AZD8055] + C[C@@H](Oc1cc(-c2cnn(C3CCNCC3)c2)cnc1N)c1c(Cl)ccc(F)c1Cl [Crizotinib] (partner 1 µM)
Outline: as §1

AZD8055 + Tozasertib = compound: COc1ccc(-c2ccc3c(N4CCOC[C@@H]4C)nc(N4CCOC[C@@H]4C)nc3n2)cc1CO [AZD8055] + Cc1cc(Nc2cc(N3CCN(C)CC3)nc(Sc3ccc(NC(=O)C4CC4)cc3)n2)n[nH]1 [Tozasertib] (partner 0.1 µM)
Outline: as §1

AZD8055 + Decitabine = compound: COc1ccc(-c2ccc3c(N4CCOC[C@@H]4C)nc(N4CCOC[C@@H]4C)nc3n2)cc1CO [AZD8055] + Nc1ncn([C@H]2C[C@H](O)[C@@H](CO)O2)c(=O)n1 [Decitabine] (partner 2 µM)
Outline: as §1

| Cell Line | relative viability (AZD8055 + Lapatinib; first compound 0.01 µM) | relative viability (AZD8055 + Lapatinib; first compound 0.03162 µM) | relative viability (AZD8055 + Lapatinib; first compound 0.1 µM) | relative viability (AZD8055 + Lapatinib; first compound 0.3162 µM) | relative viability (AZD8055 + Lapatinib; first compound 1 µM) | relative viability (AZD8055 + Crizotinib; first compound 0.01 µM) | relative viability (AZD8055 + Crizotinib; first compound 0.03162 µM) | relative viability (AZD8055 + Crizotinib; first compound 0.1 µM) | relative viability (AZD8055 + Crizotinib; first compound 0.3162 µM) | relative viability (AZD8055 + Crizotinib; first compound 1 µM) | relative viability (AZD8055 + Tozasertib; first compound 0.01 µM) | relative viability (AZD8055 + Tozasertib; first compound 0.03162 µM) | relative viability (AZD8055 + Tozasertib; first compound 0.1 µM) | relative viability (AZD8055 + Tozasertib; first compound 0.3162 µM) | relative viability (AZD8055 + Tozasertib; first compound 1 µM) | relative viability (AZD8055 + Decitabine; first compound 0.01 µM) | relative viability (AZD8055 + Decitabine; first compound 0.03162 µM) | relative viability (AZD8055 + Decitabine; first compound 0.1 µM) | relative viability (AZD8055 + Decitabine; first compound 0.3162 µM) | relative viability (AZD8055 + Decitabine; first compound 1 µM) |
| --- | --- | --- | --- | --- | --- | --- | --- | --- | --- | --- | --- | --- | --- | --- | --- | --- | --- | --- | --- | --- |
| HCC-366 | 1.12 | 0.93 | 0.864 | 0.27 | 0.2 | 0.416 | 0.484 | 0.223 | 0.107 | 0.0921 | 0.14 | 0.0951 | 0.0932 | 0.0432 | 0.0587 | 0.392 | 0.233 | 0.281 | 0.144 | 0.14 |
| HCC-827 | 0.212 | 0.201 | 0.193 | 0.141 | 0.21 | 1 | 0.965 | 0.991 | 0.479 | 0.393 | 0.449 | 0.448 | 0.447 | 0.235 | 0.295 | 0.329 | 0.279 | 0.278 | 0.262 | 0.23 |
| HOP-62 | 1.14 | 0.908 | 0.962 | 0.369 | 0.316 | 0.837 | 0.853 | 0.71 | 0.387 | 0.345 | 0.414 | 0.46 | 0.401 | 0.292 | 0.273 | 0.193 | 0.213 | 0.239 | 0.215 | 0.194 |
| IA-LM | 0.802 | 0.319 | 0.216 | 0.132 | 0.112 | 0.923 | 0.472 | 0.347 | 0.0713 | 0.105 | – | – | – | – | – | – | – | – | – | – |
| LC-2-ad | 1.1 | 0.987 | 0.924 | 0.683 | 0.456 | 0.429 | 0.502 | 0.473 | 0.384 | 0.312 | 0.491 | 0.564 | 0.366 | 0.339 | 0.377 | 0.911 | 0.729 | 0.788 | 0.835 | 0.67 |
| LCLC-97TM1 | 0.758 | 0.815 | 0.639 | 0.157 | 0.181 | 0.365 | 0.352 | 0.154 | 0.158 | 0.193 | 0.207 | 0.157 | 0.128 | 0.118 | 0.137 | 0.239 | 0.184 | 0.17 | 0.133 | 0.147 |
| LCLC-103H | – | – | – | – | – | 1.04 | 0.918 | 0.719 | 0.807 | 0.484 | 0.493 | 0.494 | 0.399 | 0.367 | 0.25 | 0.767 | 0.616 | 0.532 | 0.417 | 0.374 |
| LK-2 | 0.801 | 0.55 | 0.47 | 0.198 | 0.17 | 0.231 | 0.188 | 0.267 | 0.205 | 0.211 | 0.147 | 0.133 | 0.182 | 0.15 | 0.154 | 0.273 | 0.19 | 0.156 | 0.146 | 0.144 |
| LOU-NH91 | 0.68 | 0.679 | 0.56 | 0.484 | 0.548 | 0.71 | 0.713 | 0.673 | 0.592 | 0.531 | 0.735 | 0.716 | 0.693 | 0.672 | 0.506 | 0.85 | 0.809 | 0.72 | 0.577 | 0.615 |
| LU99A | 0.824 | 0.458 | 0.329 | 0.218 | 0.228 | 0.517 | 0.329 | 0.234 | 0.233 | 0.232 | 0.289 | 0.268 | 0.2 | 0.198 | 0.21 | 1 | 0.666 | 0.417 | 0.222 | 0.188 |
| NCI-H441 | – | – | – | – | – | 0.767 | 0.667 | 0.565 | 0.359 | 0.232 | 0.591 | 0.767 | 0.499 | 0.309 | 0.295 | 0.284 | 0.233 | 0.225 | 0.206 | 0.246 |
| NCI-H1299 | 0.974 | 1.07 | 0.98 | 0.758 | 0.439 | 0.998 | 0.995 | 0.968 | 0.891 | 0.51 | – | – | – | – | – | – | – | – | – | – |
| NCI-H1395 | 0.939 | 0.776 | 0.771 | 0.616 | 0.462 | – | – | – | – | – | 0.752 | 0.581 | 0.562 | 0.488 | 0.44 | 0.767 | 0.585 | 0.615 | 0.419 | 0.506 |
| NCI-H1563 | 0.881 | 0.836 | 0.756 | 0.644 | 0.751 | 0.769 | 0.81 | 0.697 | 0.6 | 0.679 | – | – | – | – | – | – | – | – | – | – |
| NCI-H1648 | – | – | – | – | – | – | – | – | – | – | 0.461 | 0.702 | 0.34 | 0.232 | 0.226 | 0.422 | 0.504 | 0.42 | 0.277 | 0.261 |
| NCI-H1703 | 0.798 | 0.726 | 0.879 | 0.427 | 0.313 | 0.635 | 0.489 | 0.508 | 0.4 | 0.222 | – | – | – | – | – | – | – | – | – | – |
| NCI-H1792 | 1.02 | 0.838 | 0.808 | 0.15 | 0.131 | 0.927 | 0.82 | 0.82 | 0.173 | 0.157 | – | – | – | – | – | 0.585 | 0.38 | 0.338 | 0.093 | 0.124 |
| NCI-H1793 | 0.422 | 0.346 | 0.305 | 0.308 | 0.276 | – | – | – | – | – | 0.299 | 0.219 | 0.154 | 0.136 | 0.145 | 0.435 | 0.219 | 0.207 | 0.181 | 0.221 |
| NCI-H2228 | 1.01 | 0.709 | 0.338 | 0.219 | 0.261 | 0.39 | 0.229 | 0.286 | 0.173 | 0.302 | 0.222 | 0.296 | 0.155 | 0.143 | 0.158 | – | – | – | – | – |
| NCI-H2342 | – | – | – | – | – | – | – | – | – | – | 0.477 | 0.423 | 0.395 | 0.345 | 0.371 | 0.741 | 0.653 | 0.668 | 0.668 | 0.504 |
